Consider 4 compounds from article PMC11725145 (Acta Pharmaceutica Sinica. B, 2024).

Data set [1] is described as follows: Metabolic stability in rat liver microsomes. The format is in vitro ADME.
Data set [2] deals with PDE1 F392A (Homo sapiens, UniProt Q14123, F398A). The data set can be described thus: Inhibition of PDE1 mutant by 10a. The format is biochemical.
Data set [3] deals with PDE1 Q421A (Homo sapiens, UniProt Q14123, Q427A). Put plainly: Inhibition of PDE1 mutant by 10a. Type of data set: biochemical. The following applies: Q421A vs wild type.
Sequence of PDE1 Q421A (Q14123 147-531 Q427A): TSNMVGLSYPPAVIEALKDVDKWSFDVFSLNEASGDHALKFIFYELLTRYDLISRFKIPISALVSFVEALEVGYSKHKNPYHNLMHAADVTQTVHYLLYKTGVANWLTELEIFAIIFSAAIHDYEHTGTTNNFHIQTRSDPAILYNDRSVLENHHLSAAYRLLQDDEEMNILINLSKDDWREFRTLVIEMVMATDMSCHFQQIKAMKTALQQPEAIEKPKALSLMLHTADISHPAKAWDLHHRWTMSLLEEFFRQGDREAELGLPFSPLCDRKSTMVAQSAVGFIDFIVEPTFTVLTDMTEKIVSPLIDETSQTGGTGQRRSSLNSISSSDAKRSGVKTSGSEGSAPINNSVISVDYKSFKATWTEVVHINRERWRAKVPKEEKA
For data set [4], the target named is PDE1 Y228A (Homo sapiens, UniProt Q14123, Y227A). Put plainly: Inhibition of PDE1 mutant by 10a. Type of data set: biochemical.
Sequence of PDE1 Y228A (Q14123 147-531 Y227A): as the sequence (Q14123 147-531 Q427A) above, with Y81A, A281Q counted along it

Sequence of PDE1 F392A (Q14123 147-531 F398A): as the sequence (Q14123 147-531 Q427A) above, with F252A, A281Q counted along it

With `O=C1O/C(=C\c2cc(F)ccc2OCCN2CC[C@@H](F)C2)c2cc(Cc3cccc(F)c3)[nH]c(=O)c21` [11c], the half-life in data set [1] was 13.5 min.
Turning to `Cc1cc2c(c(=O)[nH]1)C(=O)O/C2=C\c1cc(F)ccc1OC(C)C` [compound 10a], the IC50 in data set [2] came to 231 nM; in data set [4] it was 43 nM. Moreover, the “loss of binding affinity” value is on record as 14 fold in data set [2] (F392A vs wild type), 8 fold in data set [3] and ~3 fold in data set [4] (Y228A vs wild type).
Compound `O=C1O/C(=C\c2cc(F)ccc2OCCN2CCOCC2)c2cc(Cc3cccc(F)c3)[nH]c(=O)c21` [compound 11b] returned a half-life in data set [1] of 29.8 min.
As to `Cc1cc2c(c(=O)[nH]1)C(=O)O/C2=C\c1cc(F)ccc1OCCN1CCOCC1` [compound 11a], in data set [1], the half-life amounted to 8 min.

As usually defined, the half-life is the time needed for the level to fall by half in the phase considered. Read a high half-life as slow decline. In general, IC50 refers to the concentration that inhibits the measured activity by half.
